# How the values were obtained:
# Type in all cases: functional
# [1] = system: HOP-62; experiment: Cytotoxicity against human HOP62 cells assessed as cell growth at 10^-6 M after 48 hrs by SRB assay; conditions: HOP-62, 48 h, read-out: Activity
# [2] = system: TK-10; experiment: Cytotoxicity against human TK10 cells assessed as cell growth at 10^-7 M after 48 hrs by SRB assay; conditions: TK-10, 48 h, read-out: Activity
# [3] = system: HCC 2998; experiment: Cytotoxicity against human HCC2998 cells assessed as cell growth at 10^-4 M after 48 hrs by SRB assay; conditions: HCC 2998, 48 h, read-out: Activity
# [4] = system: SF-295; experiment: Cytotoxicity against human SF295 cells after 48 hrs by SRB assay; conditions: SF-295, 48 h
# [5] = Cytotoxicity against human OVCAR4 cells assessed as cell growth at 10^-7 M after 48 hrs by SRB assay; conditions: OVCAR-4, 48 h, read-out: Activity
# [6] = system: NCI-H460; experiment: Cytotoxicity against human NCI-H460 cells assessed as cell growth at 10^-6 M after 48 hrs by SRB assay; conditions: NCI-H460, 48 h, read-out: Activity
# [7] = system: Malme-3M; experiment: Cytotoxicity against human MALME-3M cells assessed as cell growth at 10^-6 M after 48 hrs by SRB assay; conditions: read-out: Activity
# [8] = system: RXF 393; experiment: Cytotoxicity against human RXF393 cells assessed as cell growth at 10^-7 M after 48 hrs by SRB assay; conditions: RXF 393, 48 h, read-out: Activity
# [9] = system: MCF7; experiment: Cytotoxicity against human MCF7 cells assessed as cell growth at 10^-8 M after 48 hrs by SRB assay; conditions: MCF7, 48 h, read-out: Activity
# [10] = Cytotoxicity against human Hs578T cells assessed as cell growth at 10^-7 M after 48 hrs by SRB assay; conditions: Hs-578T, read-out: Activity
# [11] = system: SK-OV-3; experiment: Cytotoxicity against human SKOV3 cells assessed as cell growth at 10^-4 M after 48 hrs by SRB assay; conditions: SK-OV-3, 48 h, read-out: Activity
# [12] = system: HCT-116; experiment: Cytotoxicity against human HCT116 cells assessed as cell growth at 10^-7 M after 48 hrs by SRB assay; conditions: HCT-116, 48 h, read-out: Activity
# [13] = system: HCT-116; experiment: Cytotoxicity against human HCT116 cells assessed as cell growth at 10^-6 M after 48 hrs by SRB assay; conditions: HCT-116, 48 h, read-out: Activity
# [14] = system: NCI-H226; experiment: Cytotoxicity against human NCI-H226 cells assessed as cell growth at 10^-7 M after 48 hrs by SRB assay; conditions: NCI-H226, 48 h, read-out: Activity
# [15] = system: HOP-62; experiment: Cytotoxicity against human HOP62 cells assessed as cell growth at 10^-7 M after 48 hrs by SRB assay; conditions: HOP-62, 48 h, read-out: Activity
# [16] = Cytotoxicity against human OVCAR5 cells assessed as cell growth at 10^-8 M after 48 hrs by SRB assay; conditions: OVCAR-5, 48 h, read-out: Activity
# [17] = system: A498; experiment: Cytotoxicity against human A498 cells assessed as cell growth at 10^-6 M after 48 hrs by SRB assay; conditions: A498, 48 h, read-out: Activity
# [18] = system: ACHN; experiment: Cytotoxicity against human ACHN cells assessed as cell growth at 10^-4 M after 48 hrs by SRB assay; conditions: read-out: Activity
# [19] = system: SR; experiment: Cytotoxicity against human SR cells after 48 hrs by SRB assay
# [20] = system: SF-539; experiment: Cytotoxicity against human SF539 cells after 48 hrs by SRB assay; conditions: SF-539, 48 h
# [21] = system: K562; experiment: Cytotoxicity against human K562 cells assessed as cell growth at 10^-4 M after 48 hrs by SRB assay; conditions: K562, 48 h, read-out: Activity
# [22] = system: HCT-116; experiment: Cytotoxicity against human HCT116 cells assessed as cell growth at 10^-8 M after 48 hrs by SRB assay; conditions: HCT-116, 48 h, read-out: Activity
# [23] = system: MOLT-4; experiment: Cytotoxicity against human MOLT4 cells assessed as cell growth at 10^-7 M after 48 hrs by SRB assay; conditions: MOLT-4, 48 h, read-out: Activity
# [24] = system: NCI-H322M; experiment: Cytotoxicity against human NCI-H322M cells assessed as cell growth at 10^-6 M after 48 hrs by SRB assay; conditions: read-out: Activity
# [25] = system: NCI-H460; experiment: Cytotoxicity against human NCI-H460 cells assessed as cell growth at 10^-7 M after 48 hrs by SRB assay; conditions: NCI-H460, 48 h, read-out: Activity
# [26] = system: MCF7; experiment: Cytotoxicity against human MCF7 cells after 48 hrs by SRB assay; conditions: MCF7, 48 h
# [27] = system: SK-MEL-5; experiment: Cytotoxicity against human SK-MEL-5 cells assessed as cell growth at 10^-8 M after 48 hrs by SRB assay; conditions: SK-MEL-5, 48 h, read-out: Activity
# [28] = system: NCI-H522; experiment: Cytotoxicity against human NCI-H522 cells assessed as cell growth at 10^-8 M after 48 hrs by SRB assay; conditions: NCI-H522, 48 h, read-out: Activity
# [29] = system: MOLT-4; experiment: Cytotoxicity against human MOLT4 cells after 48 hrs by SRB assay; conditions: MOLT-4, 48 h
# [30] = system: HCT-15; experiment: Cytotoxicity against human HCT15 cells assessed as cell growth at 10^-7 M after 48 hrs by SRB assay; conditions: HCT-15, 48 h, read-out: Activity
# [31] = Cytotoxicity against human OVCAR4 cells assessed as cell growth at 10^-4 M after 48 hrs by SRB assay; conditions: OVCAR-4, 48 h, read-out: Activity
# [32] = system: HT-29; experiment: Cytotoxicity against human HT-29 cells assessed as cell growth at 10^-6 M after 48 hrs by SRB assay; conditions: HT-29, 48 h, read-out: Activity
# [33] = Cytotoxicity against human OVCAR4 cells assessed as cell growth at 10^-6 M after 48 hrs by SRB assay; conditions: OVCAR-4, 48 h, read-out: Activity
# [34] = system: MDA-MB-231; experiment: Cytotoxicity against human MDA-MB-231 cells assessed as cell growth at 10^-6 M after 48 hrs by SRB assay; conditions: MDA-MB-231, 48 h, read-out: Activity
# [35] = system: CAKI-1; experiment: Cytotoxicity against human Caki1 cells after 48 hrs by SRB assay; conditions: CAKI-1, 48 h
# [36] = system: SF-295; experiment: Cytotoxicity against human SF295 cells assessed as cell growth at 10^-7 M after 48 hrs by SRB assay; conditions: SF-295, 48 h, read-out: Activity
# [37] = system: DU-145; experiment: Cytotoxicity against human DU145 cells after 48 hrs by SRB assay; conditions: DU-145, 48 h
# [38] = system: HT-29; experiment: Cytotoxicity against human HT-29 cells after 48 hrs by SRB assay; conditions: HT-29, 48 h
# [39] = system: T47D; experiment: Cytotoxicity against human T47D cells assessed as growth inhibition at 10 uM after 48 hrs by SRB assay; conditions: read-out: GI
smiles,measurement,setting,value
C=CCn1c(C)nc2ccc(Nc3nc(Nc4ccc5nc(C)n(CC=C)c5c4)c4ccccc4n3)cc21,growth at 1 µM,[1],90%
same,growth at 0.1 µM,[2],99%
same,growth at 100 µM,[3],-53%
same,GI50,[4],1.84 µM
same,TGI,[4],3.53 µM
same,growth at 0.1 µM,[5],95%
same,growth at 1 µM,[6],97%
same,growth at 1 µM,[7],98%
same,growth at 0.1 µM,[8],96%
same,growth at 0.01 µM,[9],92%
same,growth at 0.1 µM,[10],96%
same,growth at 100 µM,[11],-54%
same,growth at 0.1 µM,[12],99%
same,growth at 1 µM,[13],74%
same,growth at 0.1 µM,[14],86%
same,growth at 0.1 µM,[15],96%
same,growth at 0.01 µM,[16],95%
same,growth at 1 µM,[17],42%
same,growth at 100 µM,[18],-69%
same,GI50,[19],1.52 µM
same,LC50,[19],> 100 µM
same,TGI,[19],3.98 µM
same,GI50,[20],1.71 µM
same,LC50 (concentration giving 50% net cell kill),[20],5.71 µM
same,TGI,[20],3.12 µM
same,growth at 100 µM,[21],1%
same,growth at 0.01 µM,[22],108%
same,growth at 0.1 µM,[23],94%
same,growth at 1 µM,[24],92%
same,growth at 0.1 µM,[25],101%
same,GI50,[26],1.54 µM
same,TGI,[26],2.88 µM
same,growth at 0.01 µM,[27],94%
same,growth at 0.01 µM,[28],97%
same,GI50,[29],1.67 µM
same,LC50,[29],> 100 µM
same,growth at 0.1 µM,[30],91%
same,growth at 100 µM,[31],-43%
same,growth at 1 µM,[32],101%
same,growth at 1 µM,[33],84%
same,growth at 1 µM,[34],72%
same,GI50,[35],1.72 µM
same,TGI,[35],3.36 µM
same,growth at 0.1 µM,[36],98%
same,GI50,[37],1.85 µM
same,LC50 (50% lethal concentration),[37],5.79 µM
same,TGI,[37],3.27 µM
same,GI50,[38],1.85 µM
same,TGI,[38],3.39 µM
C=CCn1c(C)nc2cc(Nc3nc(Nc4ccc5nc(C)n(CC=C)c5c4)c4ccccc4n3)ccc21,growth at 1 µM,[1],-34%
same,growth at 0.1 µM,[2],100%
same,growth at 100 µM,[3],-88%
same,GI50,[4],1.44 µM
same,LC50,[4],5.24 µM
same,TGI,[4],2.75 µM
same,growth at 0.1 µM,[5],102%
same,growth at 1 µM,[6],-53%
same,growth at 1 µM,[7],120%
same,growth at 0.1 µM,[8],88%
same,growth at 0.01 µM,[9],101%
same,growth at 0.1 µM,[10],96%
same,growth at 100 µM,[11],-29%
same,growth at 0.1 µM,[12],102%
same,growth at 1 µM,[13],-54%
same,growth at 0.1 µM,[14],82%
same,growth at 0.1 µM,[15],99%
same,growth at 0.01 µM,[16],93%
same,growth at 1 µM,[17],93%
same,growth at 100 µM,[18],-38%
same,GI50,[19],0.222 µM
same,LC50,[19],> 100 µM
same,GI50,[20],1.1 µM
same,LC50 (concentration giving 50% net cell kill),[20],4.79 µM
same,TGI,[20],2.3 µM
same,growth at 100 µM,[21],2%
same,growth at 0.01 µM,[22],106%
same,growth at 0.1 µM,[23],91%
same,growth at 1 µM,[24],43%
same,growth at 0.1 µM,[25],103%
same,GI50,[26],0.209 µM
same,growth at 0.01 µM,[27],100%
same,growth at 0.01 µM,[28],97%
same,GI50,[29],0.229 µM
same,LC50,[29],> 100 µM
same,TGI,[29],0.629 µM
same,growth at 0.1 µM,[30],96%
same,growth at 100 µM,[31],-29%
same,growth at 1 µM,[32],-87%
same,growth at 1 µM,[33],-16%
same,growth at 1 µM,[34],-62%
same,GI50,[35],1.61 µM
same,LC50 (concentration causing 50% net cell kill),[35],5.69 µM
same,TGI,[35],3.03 µM
same,growth at 0.1 µM,[36],93%
same,GI50,[37],0.402 µM
same,LC50 (50% lethal concentration),[37],3.76 µM
same,TGI,[37],1.41 µM
same,GI50,[38],0.19 µM
same,LC50 (concentration killing 50% of cells),[38],100 µM
same,TGI,[38],0.349 µM
C=CCn1c(C)nc2cc(Nc3nc(NCCO)nc4ccccc34)ccc21,inhibition of growth at 10 µM,[39],30%

# Reference: ChEMBL document CHEMBL3112450, “Synthesis and in vitro antitumor evaluation of primary amine substituted quinazoline linked benzimidazole” (Bioorg Med Chem Lett, 2014)
